In patent publication US20250152577A1, “Pharmaceutical Composition of Ethidium Bromide and Use in Treating Cancer” (RUIJIN HOSPITAL, SHANGHAI JIAOTONG UNIVERSITY SCHOOL OF …, priority 2022, published 2025):

Experiments:
N2A Neuroglioma = test: Median lethal dosage (IC50) against tumor cell lines; format: cell-based; conditions: N2A neuroglioma tumor cells
AGS Gastric cancer = test: as above; format: cell-based; conditions: AGS gastric cancer tumor cells
Reh Leukemia = test: as above; format: cell-based; conditions: Reh leukemia tumor cells
[1] = test system: colorectal cancer cells RKO; test: Mitochondrial function by Seahorse; format: cell-based, human; conditions: Seahorse after 6 hours; concentration-dependent
Protocol: (§1) To further verify the effect of ethidium bromide on mitochondrial function, various cell lines were treated with ethidium bromide and mitochondrial function was tested by using Seahorse after 6 hours.

[2] = test system: pancreatic cancer cells Panel; test: Mitochondrial function by Seahorse; format: cell-based, human; conditions: Seahorse after 6 hours; concentration-dependent
Protocol: as §1

[3] = test system: colorectal cancer cells RKO; test: Scratch assay of cultured cells (migration); format: cell-based, human
Description: (§2) Ectopic metastasis of tumors is the biggest challenge in tumor treatment.

[4] = test system: pancreatic tumor cells Panc1; test: Scratch assay of cultured cells (migration); format: cell-based, human
Description: as §2

[5] = test system: colorectal cancer cells RKO; test: Intraperitoneal injection of colorectal cancer cells RKO in nude mice, intravenous administration; format: in vivo
Description: In order to further investigate whether ethidium bromide also has a better inhibitory effect on other types of tumors, we administered nude mice 2 weeks after the intraperitoneal injection of 2×10^6 colorectal cancer cells RKO, and then tested the anti-tumor effect of ethidium bromide after 4 weeks of intravenous administration, as described above.

[6] = Toxicity of ethidium bromide: routine blood, liver and kidney functions; format: in vivo, nude mice; conditions: after 4 weeks of intravenous administration
Description: Finally, we also conducted a preliminary study on the toxicity of ethidium bromide by collecting whole blood and serum from the control and the dosing groups (administered intravenously for about 1 month) and tested their routine blood, and liver and kidney functions, respectively.

[7] = Tolerability of gavage oral administration in mice; format: in vivo; conditions: gavage oral 20 mg/Kg per day
[8] = cited from earlier work
[9] = intravenous, start 2 weeks after cell injection, 4 weeks

CC[n+]1c(-c2ccccc2)c2cc(N)ccc2c2ccc(N)cc21 [ethidium bromide, Ethidium bromide]
IC50 (N2A Neuroglioma): 15700 nM | IC50 (AGS Gastric cancer): 710 nM | IC50 (Reh Leukemia): 2230 nM | oxygen consumption, glycolysis level, glycolysis rate [1]: significantly reduced | oxygen consumption, glycolysis level, glycolysis rate [2]: significantly reduced | migration of tumor cells [3]: significantly inhibit the migration | migration of tumor cells [4]: significantly inhibit the migration | liver and spleen weights vs control ([5]; intravenous, 4 weeks): no significant difference in liver and spleen weights | abdominal tumors vs control [5, 9]: significantly smaller than those in the control group | mice with tumors completely cleared [5, 9]: approximately 25% | body weight ([5]; later stage, dosing group): slight decrease in body weight | liver or kidney function vs control ([6]; serum): no significant difference in liver or kidney function | blood routine data (hemoglobin, platelets, leukocytes) ([6]; whole blood): very normal | tolerability [7]: well tolerated | DNA mutations and carcinogenesis in cells or organisms ([8]; National Toxicology Program, 1239-45-8): no evidence that ethidium bromide can induce DNA mutations and carcinogenesis | genetic mutations in cells ([8]; long-term treatment, Mutation Research, 174(1986) 175-178): do not create genetic mutations
